Reference: patent US20240101535A1, “DIHYDROISOQUINOLINONE DERIVATIVE AND APPLICATION THEREOF” (ETERN BIOPHARMA (SHANGHAI) CO., LTD., priority 2020, published 2024)
Structures can show the parent of a compound that is named as a salt. Where two headings read alike, the source gives them in different places.

Legend:
MV4-11 cells = assay: MV4-11 cell proliferation inhibition experiment (CellTiter-Glo); format: cell-based; conditions: 6 days, read-out: cell proliferation inhibitory activity
Procedure: Test Example 2: MV4-11 Cell (ATCC: CRL-9591) Proliferation Inhibition Experiment
ATP in living cells was quantitatively detected by CellTiter-Glo (Promega-G7573) Luminescence Cell Viability Assay Kit to determine the effect of the compounds to be tested on cell proliferation. • Step 1: MV4-11 cells were seeded in 96-well plates (Greiner-655098) at a density of 1,500 cells per well with a volume of 140 μL per well; Cell culture medium components included RPM11640 (Gibco-A10491-01)+10% FBS (Gibco-10099-141C)+1% Penicillin-Streptomycin (5,000 U/mL, Gibco-15070-063). • Step 2: On the day of cell seeding, the cells were treated with the compound to be tested. The compound to be tested was diluted with a 3-fold gradient, and a total of 9 concentration gradients were set. DMSO (Sigma, D2650) with 0.5% final concentration or a DMSO solution containing the compound to be tested was added per well with 2 or 3 replicate wells at each concentration point. The plates were incubated at 37° C. in a 5% CO2 incubator (Thermo Scientific Steri-Cycle 371) for 6 days. • Step 3: The cell viability in the control and treatment groups was detected with CellTiter-Glo Luminescent Cell Viability Assay Kit. 50 μL of CellTiter-Glo was added per well, mixed well, and incubated for 15 min at room temperature protected from light. According to the kit instructions, the chemiluminescence signal was read using a multifunctional microplate reader (EnVision, PerkinElmer).
The inhibition percentage (%) of the compound at each concentration point was calculated by the following formula:
Inhibition Percentage (%)=(1−signal value of the group treated with the compound/signal value of the group treated with DMSO)*100.
The value of cell proliferation semi-inhibitory concentration IC50 was calculated using GraphPad Prism software, and the results are shown in Table 2.

[1] = molecular target: WDR5 protein (22-334aa) with MLL1 polypeptide (3672-3773aa) (Homo sapiens, UniProt P61964); assay: WDR5-MLL PPI inhibitory activity test (HTRF); format: binding; conditions: His-tagged WDR5 and biotin-tagged MLL1 polypeptide
Excerpt: Test Example 1: WDR5-MLL PPI Inhibitory Activity Test
Effect of the compounds on WDR5 (WD Repeat Domain 5) and MLL1 (mixed-lineage leukemia 1) peptides at molecular level.
The effect of the compound on the interaction of WDR5 protein (22-334aa) with MLL1 polypeptide (3672-3773aa) was detected by HTRF (Homogeneous Time-Resolved Fluorescence) technology. When the N-terminal His-tagged WDR5 recognized by the Anti-6His-Eu cryptate donor interacts with the biotin-tagged MLL1 polypeptide recognized by the streptavidin-APC receptor, the donor and acceptor are pulled close enough to produce fluorescence resonance energy transfer (FRET). […] Therefore, the decrease in FRET signal can reflect the compound's inhibition on the interaction of WDR5 with MLL1 polypeptide.
The compound to be tested was diluted 3-fold with DMSO. […] Then the compound was diluted with reaction buffer (25 mM HEPES pH=7.5, 100 mM NaCl, 0.05% Tween 20) to control the final concentration of DMSO at 0.5%. In a 384-well plate, 1 μL of compound and 3 μL of 42 nM WDR5 protein were added, centrifuged at 1000 rpm for 1 min, incubated at room temperature for 60 min, followed by adding 3 μL of 333 nM MLL1 polypeptide with incubation at room temperature for 10 min, and followed by adding 3 μL of a mixed liquid of Anti-6His-Eu cryptate and streptavidin-APC with centrifugation at 1000 rpm for 1 mi and incubation at room temperature protected from light for 60 min, using a multifunction microplate reader (EnVision®2105) to read the signal. The following controls were set up per plate: control group (1 μL with 5% DMSO reaction buffer, 3 μL of 42 nM WDR5, 3 μL of MLL1 polypeptide, 3 μL of Anti-6His-Eu cryptate and streptavidin-APC). Blank group (1 μL reaction buffer with 5% DMSO, 3 μL reaction buffer, 3 μL MLL1 polypeptide, 3 μL Anti-6His-Eu cryptate and streptavidin-APC). The test data was calculated according to the signal ratio of two beams of fluorescence at different wavelengths: (665 nm signal/620 nm signal)*10000. […] The IC50 value was calculated using XLfit software.

SMILES | IC50 (MV4-11 cells; Homo sapiens, 144 h) [nM] | IC50 [1] [nM] | IC50 (MV4-11 cells) [nM]
CCOc1cc([C@H](C)N2CC3(CCC3)c3c(CN4CCOCC4)cc(Cn4ccnc4NC)cc3C2=O)ncc1C#N [Compound 72, (S)-4-ethoxy-6-(1-(7′-((2-(methylamino)-1H-imidazol-1-yl)methyl)-5′-(morpholinylmethyl)-1′-one-1′H-spiro[cyclobutyl-1,4′-isoquinoline]-2′(3′H)-yl)ethyl)nicotinonitrile] | < 50 | < 20 | –
CCOc1cc([C@H](C)N2CC3(CCC3)c3c(CN4CCC(OC)CC4)cc(Cn4ccnc4NC)cc3C2=O)ncc1C#N [Compound 81] | < 50 | < 20 | –
CCOc1cc([C@H](C)N2CC3(CC3)c3c(CN4CCN(CC)CC4)cc(Cn4ccnc4NC)cc3C2=O)ncc1F [Compound 57] | < 50 | < 20 | –
CCOc1cc([C@@H](C)N2C[C@]3(CC3(F)F)c3c(CN(C)C)cc(Cn4ccnc4NC)cc3C2=O)ncc1F (stereo in doubt) [Compound 96, (S)-5′-((dimethylamino)methyl)-2′-((R)-1-(4-ethoxy-5-fluoropyridine-2-yl)ethyl)-2,2-difluoro-7′-((2-(methylamino)-1H imidazol-1-yl)methyl)-2′, 3′-dihydro-1′H-spiro[cyclopropan-1,4′-isoquinoline]-1′-one] | < 50 | < 20 | –
CNc1nccn1Cc1cc(CN2CC(F)(F)C2)c2c(c1)C(=O)N([C@@H](C)c1cc(OC)c(C#N)cn1)CC21CC1 [Compound 61] | 50 to 200 | < 20 | –
CCOc1cc([C@H](C)N2CC3(CCC3)c3c(CN(C)C)cc(Cn4ccnc4NC)cc3C2=O)ncc1F [Compound 18, (S)-5′-((dimethylamino)methyl)-2′-(1-(4-ethoxy-5-fluoropyridine-2-yl)ethyl)-7′-((2-(methylamino)-1H-imidazol-1-yl)methyl)-2′,3′-dihydro-1′H-spiro[cyclobutan-1,4′-isoquinoline]-1′-one] | 50 to 200 | < 20 | –
CNc1nccn1Cc1cc(CN(C)C)c2c(c1)C(=O)N([C@@H](C)c1cc(OC)c(C#N)cn1)CC21CC1 [Compound 2] | 50 to 200 | < 20 | –
CCOc1cc([C@H](C)N2CC3(CCC3)c3c(CN4CC[C@H](O)C4)cc(Cn4ccnc4NC)cc3C2=O)ncc1F [Compound 85, 2′-((S)-1-(4-ethoxy-5-fluoropyridine-2-yl)ethyl)-5′-(((S)-3-hydroxylpyrrolidin-1-yl)methyl)-7′-((2-(methylamino)-1H-imidazol-1-yl)methyl)-2′,3′-dihydro-1′H-spiro[cyclobutan-1,4′-isoquinoline]-1′-one] | < 50 | < 20 | –
CCOc1cc(C(C)N2CC3(CC3(F)F)c3c(CN(C)C)cc(Cn4ccnc4NC)cc3C2=O)ncc1F (single isomer, unassigned) [Compound 89] | – | < 20 | < 50
CCOc1cc([C@H](C)N2CC3(CC3)c3c(CN4C5CC4CN(C)C5)cc(Cn4ccnc4NC)cc3C2=O)ncc1F [Compound 70, 2′-((S)-1-(4-ethoxy-5-fluoropyridine-2-yl)ethyl)-5′-((3-methyl-3,6-diazadicyclo[3.1.1]heptan-6-yl)methyl)-7′-((2-(methylamino)-1H-imidazol-1-yl)methyl)-2′,3′-dihydro-1′H-spiro[cyclopropan-1,4′-isoquinoline]-1′-one] | < 50 | < 20 | –
CCOc1cc([C@H](C)N2CC3(CCC3)c3c(CN4CCN(C)CC4)cc(Cn4ccnc4NC)cc3C2=O)ncc1C#N [Compound 73, (S)-4-ethoxy-6-(1-(7′-((2-(methylamino)-1H-imidazol-1-yl)methyl)-5′-((4-methylpiperazin-1-yl)methyl)-1′-one-1′H-spiro[cyclobutan-1,4′-isoquinoline]-2′(3′H)-yl)ethyl)nicotinonitrile] | < 50 | < 20 | –
CNc1nccn1Cc1cc(CN(C)C)c2c(c1)C(=O)N([C@@H](C)c1cc(OC3CC3)c(F)cn1)CC21CC1 [Compound 14] | 50 to 200 | < 20 | –
CCOc1cc([C@H](C)N2CC3(CC3)c3c(CN4CCN(C)CC4)cc(Cn4ccnc4NC)cc3C2=O)ncc1F [Compound 37] | < 50 | < 20 | –
CCOc1cc([C@H](C)N2CC3(CC3)c3c(CN4CCN(CC(F)(F)F)CC4)cc(Cn4ccnc4NC)cc3C2=O)ncc1C#N [Compound 63, (S)-4-ethoxy-6-(1-(7′-((2-(methylamino)-1H-imidazol-1-yl)methyl)-1′-one-5′-((4-(2,2,2-trifluoroethyl)piperazin-1-yl)methyl)-1′H-spiro[cyclopropan-1,4′-isoquinoline]-2′(3′H)-yl)ethyl)nicotinonitrile] | 50 to 200 | < 20 | –
CNc1nccn1Cc1cc(CN(C)C)c2c(c1)C(=O)N([C@@H](C)c1cnc(F)c(OC)c1)CC21CC1 [Compound 4] | < 50 | < 20 | –
CCOc1cc([C@H](C)N2CC3(CC3(F)F)c3c(CN(C)C)cc(Cn4ccnc4NC)cc3C2=O)ncc1C#N (stereo in doubt) [Compound 95, 6-(-1-(5′-((dimethylamino)methyl)-2,2-difluoro-7′-((2-(methylamino)-1H-imidazol-1-yl)methyl)-1′-one-1′H-spiro[cyclopropan-1,4′-isoquinoline]-2′(3′H)-yl)ethyl)-4-ethoxynicotinonitrileformate salt] | < 50 | < 20 | –
CCOc1cc(C(C)N2CC3(CC3)c3c(CN(C)CC(F)(F)F)cc(Cn4ccnc4NC)cc3C2=O)ncc1F (stereo not shown) [Compound 41, 2′-(1-(4-ethoxy-5-fluoropyridine-2-yl)ethyl)-5′-((methyl(2,2,2-trifluoroethyl)amino)methyl)-7′-((2-(methylamino)-1H-imidazol-1-yl)methyl)-2′,3′-dihydro-1′H-spiro[cyclopropan-1,4′-isoquinoline]-1′-one] | 50 to 200 | 20 to 100 | –
CCOc1cc([C@H](C)N2CC3(CCC3)c3c(CN4CCN(C)CC4)cc(Cn4ccnc4NC)cc3C2=O)ncc1F [Compound 83, (S)-2′-(1-(4-ethoxy-5-fluoropyridine-2-yl)ethyl)-7′-((2-(methylamino)-1H-imidazol-1-yl)methyl)-5′-((4-methylpiperazin-1-yl)methyl)-2′,3′-dihydro-1′H-spiro[cyclobutan-1,4′-isoquinoline]-1′-one] | < 50 | < 20 | –
CCOc1cc([C@H](C)N2CC3(CC3)c3c(CN4CCN(C5CC5)CC4)cc(Cn4ccnc4NC)cc3C2=O)ncc1F [Compound 64, (S)-5′-((4-cyclopropylpiperazin-1-yl)methyl)-2′-(1-(4-ethoxy-5-fluoropyridine-2-yl)ethyl)-7′-((2-(methylamino)-1H-imidazol-1-yl)methyl)-2′,3′-dihydro-1′H-spiro[cyclopropan-1,4′-isoquinoline]-1′-one] | 50 to 200 | < 20 | –
CCOc1cc(CN2CC3(CCC3)c3c(CN(C)C)cc(Cn4ccnc4NC)cc3C2=O)ncc1C#N [Compound 77, 6-((5′-((dimethylamino)methyl)-7′-((2-(methylamino)-1H-imidazol-1-yl)methyl)-1′-one-1′H-spiro[cyclobutan-1,4′-isoquinoline]-2′(3′H)-yl)methyl)-4-ethoxynicotinonitrile] | < 50 | < 20 | –
